In test [1] the test system is S. aureus SA1199. The experiment in a line: Checkerboard two-fold broth microdilution, MIC and MBC. It counts as cell-based, Staphylococcus aureus. The note with it: for MBC: antibiotic alone. Here is the method: Checkerboard titration was performed with INF 401 and erythromycin to quantitate the effects of the combination on Staphylococcal growth using two-fold serial broth microdilution. After overnight incubation, cells were transferred to fresh medium, as described above, to determine those combinations that were bactericidal to S. aureus. […] Although not determined according to NCCLS recommended procedures ([…]), the inventors considered this the Minimal Bactericidal Concentration (MBC).
The inventors next evaluated whether INF 401 was bactericidal in combination with other protein synthesis inhibitors which are bacteriostatic to S. aureus. Checkerboard studies were performed with two-fold dilutions of each antibiotic in combination with INF 401 using the assay described above in Example 2. After overnight incubation the MIC of each antibiotic was determined by visualization of bacterial growth. […] The MBC of each antibiotic was determined as described in Example 2 in the absence or presence of INF 401.
Background: In broth dilution the organism is exposed to a series of concentrations in liquid medium.

Test [2] has as its system S. aureus (SA1199). The experiment in a line: Time kill studies (CFU counts). The note with it: antibiotic 1×MIC + 5 μg/ml INF 401. It counts as cell-based, Staphylococcus aureus. As to the method:
FIG. 5A, FIG. 5B and FIG. 5C. […]
The initial inoculum number was determined by plating an appropriate dilution on LB agar plates and determining the number of colony forming units (CFUs). At different time points an aliquot was withdrawn from each tube and cell viability was determined by plating an appropriate dilution and counting CFUs after overnight incubation.

Another test relates to S. pneumoniae. The experiment in a line: Bactericidal activity (MBC) of translational inhibitors with or without INF 401 in S. pneumoniae. The conditions noted are these: antibiotic alone. Type of test: cell-based, Streptococcus pneumoniae. The text has this:
It would be desirable that an antibiotic potentiator of the present invention is active not only in S. aureus but also in other bacterial pathogens. The inventors have begun studies to investigate whether INF 401 can also potentiate the activity of translational inhibitors in another Gram positive pathogen, S. pneumoniae.

In another test the test system is S. aureus SA 29213. Briefly: 55Fe transport assay (intracellular iron accumulation). Type of test: cell-based, Staphylococcus aureus. The note with it: LB, ^55FeCl3 30 min 37° C.; chloramphenicol alone or INF 401 in absence of antibiotic. Here is the method: Next, investigated was whether INF 401 affects intracellular iron accumulation. An ^55Fe transport assay (modified from Sebulsky, 2000) was used to examine the ability of INF 401 to transport iron inside the cell. Briefly, exponentially growing cells were diluted to OD600 0.1 in LB, incubated with ^55FeCl3 for 30 min at 37° C., washed and counted in scintillation fluid using the tritium channel of a scintillation system. […] However, the presence of INF 401 in either the absence or presence of antibiotic led to a dramatic increase in iron accumulation (209,215 and 231,621 DPM, respectively).
Activity of the compound is depicted as the minimal concentration required to kill 99.9% of S. aureus in the presence of 4 μg/ml erythromycin.

Test [3] concerns S. aureus strain ATTC 29213. Briefly: Characterization of killing by INF 401 plus chloramphenicol (viability, morphology, protein, DNA, metal dependence). Type of test: cell-based, Staphylococcus aureus. The conditions noted are these: chloramphenicol 20 μg/ml or INF 401 2 μg/ml alone.
Description: Time kill study of the effect of NF 401 in combination with chloramphenicol. Exponentially growing cells (S. aureus strain 29213) were diluted to OD600 0.1 in LB supplemented with 20 μg/ml of chloramphenicol (Cm) in the presence or absence of INF 401 (2 μg/ml) and incubated with shaking at 37° C. At indicated time points cells were harvested, washed with LB and plated on LB agar plates. Number of colony forming units (CFUs) was determined after overnight incubation.
Time kill study of the effect of iron on the bactericidal activity of INF 401. S. aureus strain 29213 was grown overnight in iron-limited Staphylococcal Siderophore Detection (SSD) medium (Heinrichs, 1999) supplemented with 2 μM FeCl3, washed with SSD and diluted 1:100 into the fresh medium containing 0, 2 or 50 μm FeCl3. Exponentially growing cells were diluted to OD600 0.01 in the corresponding medium supplemented when indicated with 20 μg/ml of chloramphenicol (Cm) and 2 μg/ml of INF 401. At 0, 1, 2 and 3.5 hours cells were plated in different dilutions to the LB agar plates and number of colony forming units (CFUs) was counted next day.
Test [4] concerns S. aureus SA1199. Briefly: Checkerboard two-fold broth microdilution, MIC and MBC. It counts as cell-based, Staphylococcus aureus. The note with it: Table 2, plus 10 μg/ml INF 402, unit not given.
In test [5] the test system is S. aureus (SA1199). The conditions noted are these: vancomycin; Jeffrey et al., 1999; cited from earlier work.

SMILES strings stand for the structures. Where two headings read alike, the source gives them in different places.

A word on the MIC: it is the least concentration at which growth counts as inhibited. As usually defined, the MBC is the lowest tested concentration that kills the bacteria rather than only halting them.

For the molecule `O=C(N[C@H](CO)[C@H](O)c1ccc([N+](=O)[O-])cc1)C(Cl)Cl` [Chloramphenicol], the MIC in the test on S. aureus SA1199 [1] (Staphylococcus aureus, SA1199) turned out to be 8 µg/mL; in the test with S. aureus SA1199 [1] (Table 2, S. aureus SA1199, unit inferred), 8 µg/mL. For the same molecule, the MBC is greater than 64 µg/mL with S. aureus SA1199 [1] (Staphylococcus aureus, SA1199, read-out: MBC^a = MBC in the absence of INF 401, Table 1, S. aureus SA1199, unit inferred) and greater than 64 µg/mL in the test with S. aureus SA1199 [1] (Staphylococcus aureus, SA1199, read-out: MBC^a = MBC in the absence of INF 401, Table 2, S. aureus SA1199, unit inferred). The “MBC^b = MBC in the presence of 5 μg/ml of INF 401” value in the test with S. aureus SA1199 [1] (Table 1, S. aureus SA1199, plus 5 μg/ml INF 401, unit not given) came out at 4. The “reduction in cell viability, antibiotic in combination with INF 401” value in the test with S. aureus (SA1199) [2] came out at 3 log10. Also, the “bactericidal concentration in the absence of INF 401 as multiple of MIC” value in the test with S. pneumoniae stood at 2 ×MIC. Moreover, the “amount of ^55Fe accumulated by cells, single agent” value in the test on S. aureus SA 29213 is 4,976 DPM. Moreover, the “effect of single agent on DNA integrity” value in test [3] was “did not affect DNA integrity”. Further, the “MBC^b = MBC in the presence of 10 μg/ml of INF 402” value in the test with S. aureus SA1199 [4] is on record as 8.
With `CN[C@H](CC(C)C)C(=O)N[C@H]1C(=O)N[C@@H](CC(N)=O)C(=O)N[C@H]2C(=O)N[C@H]3C(=O)N[C@H](C(=O)N[C@H](C(=O)O)c4cc(O)cc(O)c4-c4cc3ccc4O)[C@H](O)c3ccc(c(Cl)c3)Oc3cc2cc(c3O[C@@H]2O[C@H](CO)[C@@H](O)[C@H](O)[C@H]2O[C@H]2C[C@](C)(N)[C@H](O)[C@H](C)O2)Oc2ccc(cc2Cl)[C@H]1O` [vancomycin], in the test with S. aureus (SA1199) [5], the “time to decrease the viability of S. aureus by 1000-fold” value is 4 to 8 h.

Source of the values: patent US20050043369A1, “Bactericidal antimicrobial methods and compositions for use in treating gram positive infections” (Protez Pharmaceuticals Inc., priority 2000, published 2005).
